BindingDB's records for PubMed 2419545 (National Institutes of Health, 1986)
Where a chain is given by its changes, count along the chain named. “And” between values parts separate entries of the source, which are not always exact repeats. Identical values can stand only once. Residues, ends and D or L forms follow the SMILES beside them.

Assays:
Eledoisin = Eledoisin (Eledone moschata, UniProt P62934)
ATP synthase subunit a = target: T1, ATP synthase subunit a (Rattus norvegicus, UniProt P05504)
T1 sequence (P05504 whole entry): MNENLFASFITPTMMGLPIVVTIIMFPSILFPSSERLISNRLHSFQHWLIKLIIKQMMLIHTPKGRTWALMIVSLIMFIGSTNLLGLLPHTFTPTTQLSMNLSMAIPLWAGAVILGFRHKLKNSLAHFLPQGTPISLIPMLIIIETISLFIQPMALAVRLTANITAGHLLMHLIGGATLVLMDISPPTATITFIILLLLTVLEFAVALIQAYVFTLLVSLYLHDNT

Protachykinin-1 [1] = target: T2, Protachykinin-1 (Rattus norvegicus, UniProt P06767)
T2 sequence (P06767 whole entry): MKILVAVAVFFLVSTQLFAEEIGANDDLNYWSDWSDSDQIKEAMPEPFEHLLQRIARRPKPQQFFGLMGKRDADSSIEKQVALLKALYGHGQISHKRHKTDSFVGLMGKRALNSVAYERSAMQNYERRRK

Protachykinin-1 [2] = target: T3, Protachykinin-1 (Mus musculus, UniProt P41539)
T3 sequence (P41539 whole entry): T2 sequence (P06767 whole entry) with G23D, I77V

Substance P = Substance P (Cavia porcellus, UniProt P67932)
Substance-K receptor = target: T4, Substance-K receptor (Cavia porcellus, UniProt Q64077)
T4 sequence (Q64077 whole entry): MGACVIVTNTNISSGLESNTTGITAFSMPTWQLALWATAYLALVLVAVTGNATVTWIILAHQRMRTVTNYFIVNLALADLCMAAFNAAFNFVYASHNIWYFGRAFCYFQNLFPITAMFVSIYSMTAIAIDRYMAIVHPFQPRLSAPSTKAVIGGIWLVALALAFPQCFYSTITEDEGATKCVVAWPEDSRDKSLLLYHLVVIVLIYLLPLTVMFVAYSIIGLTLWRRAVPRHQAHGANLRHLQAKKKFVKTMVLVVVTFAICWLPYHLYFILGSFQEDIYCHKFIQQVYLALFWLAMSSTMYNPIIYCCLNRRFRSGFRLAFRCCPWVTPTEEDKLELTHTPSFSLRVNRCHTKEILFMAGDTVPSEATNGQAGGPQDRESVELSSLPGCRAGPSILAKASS

[3] = target: Class E basic helix-loop-helix protein 22 (Mus musculus, UniProt Q8C6A8)
Class E basic helix-loop-helix protein 22, sequence (Q8C6A8 whole entry): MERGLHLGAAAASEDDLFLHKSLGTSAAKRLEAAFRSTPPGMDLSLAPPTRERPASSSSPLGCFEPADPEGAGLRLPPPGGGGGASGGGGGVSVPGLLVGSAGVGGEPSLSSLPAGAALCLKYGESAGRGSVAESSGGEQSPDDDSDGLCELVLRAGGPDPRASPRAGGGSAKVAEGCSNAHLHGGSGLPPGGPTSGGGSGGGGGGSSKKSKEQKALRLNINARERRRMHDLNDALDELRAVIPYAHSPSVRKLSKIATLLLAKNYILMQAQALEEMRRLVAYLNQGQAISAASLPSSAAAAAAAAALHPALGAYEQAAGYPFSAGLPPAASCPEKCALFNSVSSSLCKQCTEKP

Compound | Ki (Eledoisin) [nM] | Ki (ATP synthase subunit a) | Ki (Protachykinin-1 [1]) | Ki (Protachykinin-1 [2]) | Ki (Substance P) [nM] | Ki (Substance-K receptor) [nM] | Ki [3] [nM]
CC[C@H](C)[C@H](NC(=O)[C@H](Cc1ccccc1)NC(=O)[C@H](C)NC(=O)[C@H](CC(=O)O)NC(=O)[C@H](CCCCN)NC(=O)[C@H](CO)NC(=O)[C@@H]1CCCN1C(=O)[C@@H]1CCC(=O)N1)C(=O)NCC(=O)N[C@@H](CC(C)C)C(=O)N[C@@H](CCSC)C(N)=O (HELM PEPTIDE1{[Glp].P.S.K.D.A.F.I.G.L.M.[am]}$$$$V2.0) | 2.2 | 4.2 nM and 3 nM | 16 nM and 9 nM | 9 nM and 5 nM | 9 | 15 | 
CSCC[C@H](NC(=O)[C@H](CC(C)C)NC(=O)CNC(=O)[C@H](Cc1ccccc1)NC(=O)[C@H](Cc1ccccc1)NC(=O)[C@H](CCC(N)=O)NC(=O)[C@H](CCC(N)=O)NC(=O)[C@@H]1CCCN1C(=O)[C@H](CCCCN)NC(=O)[C@@H]1CCCN1C(=O)[C@@H](N)CCCN=C(N)N)C(N)=O [Arg-Pro-Lys-Pro-Gln-Gln-Phe-Phe-Gly-Leu-Met NH2] | 19 | 106 nM and 21 nM |  |  | 0.2 | 200 | 47
CSCC[C@H](NC(=O)[C@H](CC(C)C)NC(=O)CNC(=O)[C@@H](NC(=O)[C@H](Cc1ccccc1)NC(=O)[C@H](Cc1ccccc1)NC(=O)[C@H](CC(=O)O)NC(=O)[C@H](Cc1c[nH]cn1)NC(=O)[C@H](CCSC)NC(=O)[C@@H](N)CC(=O)O)C(C)C)C(N)=O [NSC_5311312] | 17 | 4.7 nM and 6 nM | 50 nM and 56 nM | 20 nM and 80 nM | 35 | 200 | 10
CSCC[C@H](NC(=O)[C@H](CC(C)C)NC(=O)CNC(=O)[C@@H](NC(=O)[C@H](Cc1ccccc1)NC(=O)[C@H](CO)NC(=O)[C@H](CC(=O)O)NC(=O)[C@@H](NC(=O)[C@H](CCCCN)NC(=O)[C@@H](N)Cc1cnc[nH]1)[C@@H](C)O)C(C)C)C(N)=O [Neurokinin alpha] | 10 |  | 1.3 nM and 4.6 nM | 1 nM and 4 nM | 8 | 1.3 | 0.5
CSCC[C@H](NC(=O)[C@H](CC(C)C)NC(=O)CNC(=O)[C@H](Cc1ccc(O)cc1)NC(=O)[C@H](Cc1ccccc1)NC(=O)[C@H](CCCCN)NC(=O)[C@H](CC(N)=O)NC(=O)[C@@H]1CCCN1C(=O)[C@H](CC(=O)O)NC(=O)[C@H](C)NC(=O)[C@@H]1CCC(=O)N1)C(N)=O [physalaemin] (HELM PEPTIDE1{[Glp].A.D.P.N.K.F.Y.G.L.M.[am]}$$$$V2.0) | 14 | 23 nM and 30 nM |  | 175 nM | 0.7 | 340 | 17
H-DVPKSDQFVGLM-NH2 [CAS_45749] | 2.6 | 4.1 nM and 1.9 nM | 6 nM and 9 nM | 7 nM | 9 | 11 | 0.5
